The values that follow come from patent US4446133A, “1-Phenyl-4-carbamoyl piperazine compounds, process for preparation thereof and utilizations thereof” (Misuitoatsu Chemicals, Inc., priority 1980, dated 1984).

The test system of the first assay is Sarcoma 180. As to the kind of experiment: Test 4: Test of Antitumor Effect to Sarcoma 180 by Oral Administration. It counts as in vivo, ICR female mice. The settings on record: 100 mg/kg oral once a day, 10 days; 2 weeks; control 10.6. The method, then:
To the control group, a physiological saline solution was similarly administered. The dose of the compound was 100 mg per Kg of the body weight. The diameter D (mm) of the tumor was measured, and the average value and the number N of the living mice were determined to obtain results shown in Table 4.
Regarding `CCN(CC)C(=O)N1CCN(c2ccc(C(C)=O)cc2)CC1` [drawing 34], the “D: average diameter of tumor, 2 weeks” value worked out at 8.4 mm.

For `CCN(CC)C(=O)N1CCN(c2ccc(Cl)cc2)CC1` [drawing 30], the “D: average diameter of tumor, 2 weeks” value stood at 7.1 mm.

Consider `CCN(CC)C(=O)N1CCN(c2ccc(OC)cc2)CC1` [drawing 31], for which the “D: average diameter of tumor, 2 weeks” value turned out to be 8.1 mm.

As for `CCN(CC)C(=O)N1CCN(c2ccc(C(=O)O)cc2)CC1` [drawing 33], the “D: average diameter of tumor, 2 weeks” value was found to be 6.8 mm.

For the compound `CCOC(=O)c1ccc(N2CCN(C(=O)N(CC)CC)CC2)cc1` [drawing 32], the “D: average diameter of tumor, 2 weeks” value is reported as 9.2 mm.

With `CCN(CC)C(=O)N1CCN(c2ccccc2)CC1` [drawing 29], the “D: average diameter of tumor, 2 weeks” value is 7.8 mm.

The same assay, now with this note: 100 mg/kg oral once a day, 10 days; 4 weeks; control 15.2.
On to `CCN(CC)C(=O)N1CCN(c2ccc(C(C)=O)cc2)CC1` [drawing 34], for which the “D: average diameter of tumor, 4 weeks” value amounted to 4.7 mm.

For `CCN(CC)C(=O)N1CCN(c2ccc(Cl)cc2)CC1` [drawing 30], the “D: average diameter of tumor, 4 weeks” value is 5.8 mm.

For the compound `CCN(CC)C(=O)N1CCN(c2ccc(OC)cc2)CC1` [drawing 31], the “D: average diameter of tumor, 4 weeks” value is recorded as 4.6 mm.

For `CCN(CC)C(=O)N1CCN(c2ccc(C(=O)O)cc2)CC1` [drawing 33], the “D: average diameter of tumor, 4 weeks” value worked out at 3.5 mm.

In the case of `CCOC(=O)c1ccc(N2CCN(C(=O)N(CC)CC)CC2)cc1` [drawing 32], the “D: average diameter of tumor, 4 weeks” value is 7.4 mm.

As for `CCN(CC)C(=O)N1CCN(c2ccccc2)CC1` [drawing 29], the “D: average diameter of tumor, 4 weeks” value worked out at 6.6 mm.

Staying with this assay, now noted: 100 mg/kg oral once a day, 10 days; 6 weeks; control 22.4.
With `CCN(CC)C(=O)N1CCN(c2ccc(C(C)=O)cc2)CC1` [drawing 34], the “D: average diameter of tumor, 6 weeks” value is listed as 5.1 mm.

Take `CCN(CC)C(=O)N1CCN(c2ccc(Cl)cc2)CC1` [drawing 30]: the “D: average diameter of tumor, 6 weeks” value is recorded as 3.0 mm.

With `CCN(CC)C(=O)N1CCN(c2ccc(OC)cc2)CC1` [drawing 31], the “D: average diameter of tumor, 6 weeks” value is 5.0 mm.

For the compound `CCN(CC)C(=O)N1CCN(c2ccc(C(=O)O)cc2)CC1` [drawing 33], the “D: average diameter of tumor, 6 weeks” value is 4.4 mm.

`CCOC(=O)c1ccc(N2CCN(C(=O)N(CC)CC)CC2)cc1` [drawing 32]: the “D: average diameter of tumor, 6 weeks” value came to 4.8 mm.

`CCN(CC)C(=O)N1CCN(c2ccccc2)CC1` [drawing 29]: the “D: average diameter of tumor, 6 weeks” value is 3.7 mm.

Staying with this assay, now noted: 100 mg/kg oral once a day, 10 days; 8 weeks; control 31.5.
Take `CCN(CC)C(=O)N1CCN(c2ccc(C(C)=O)cc2)CC1` [drawing 34]: the “D: average diameter of tumor, 8 weeks” value is 6.6 mm.

On to `CCN(CC)C(=O)N1CCN(c2ccc(Cl)cc2)CC1` [drawing 30], for which the “D: average diameter of tumor, 8 weeks” value was 0 mm.

As for `CCN(CC)C(=O)N1CCN(c2ccc(OC)cc2)CC1` [drawing 31], the “D: average diameter of tumor, 8 weeks” value was found to be 2.2 mm.

Turning to `CCN(CC)C(=O)N1CCN(c2ccc(C(=O)O)cc2)CC1` [drawing 33], the “D: average diameter of tumor, 8 weeks” value was 2.2 mm.

With `CCOC(=O)c1ccc(N2CCN(C(=O)N(CC)CC)CC2)cc1` [drawing 32], the “D: average diameter of tumor, 8 weeks” value is listed as 3.2 mm.

Turning to `CCN(CC)C(=O)N1CCN(c2ccccc2)CC1` [drawing 29], the “D: average diameter of tumor, 8 weeks” value stood at 0.9 mm.

Still in this assay, the particulars now being: 100 mg/kg oral once a day, 10 days; 10 weeks; control 37.6.
Turning to `CCN(CC)C(=O)N1CCN(c2ccc(C(C)=O)cc2)CC1` [drawing 34], the “D: average diameter of tumor, 10 weeks” value was determined as 0 mm.

Take `CCN(CC)C(=O)N1CCN(c2ccc(Cl)cc2)CC1` [drawing 30]: the “D: average diameter of tumor, 10 weeks” value is listed as 0 mm.

On to `CCN(CC)C(=O)N1CCN(c2ccc(OC)cc2)CC1` [drawing 31], for which the “D: average diameter of tumor, 10 weeks” value is listed as 0.6 mm.

`CCN(CC)C(=O)N1CCN(c2ccc(C(=O)O)cc2)CC1` [drawing 33]: the “D: average diameter of tumor, 10 weeks” value worked out at 0 mm.

Consider `CCOC(=O)c1ccc(N2CCN(C(=O)N(CC)CC)CC2)cc1` [drawing 32], for which the “D: average diameter of tumor, 10 weeks” value was 0 mm.

For `CCN(CC)C(=O)N1CCN(c2ccccc2)CC1` [drawing 29], the “D: average diameter of tumor, 10 weeks” value was 0 mm.

Still in this assay, the particulars now being: 100 mg/kg oral; of 6 mice; 0 weeks; control 6.
Regarding `CCN(CC)C(=O)N1CCN(c2ccc(C(C)=O)cc2)CC1` [drawing 34], the “N: number of living mice, 0 weeks” value was 6.

Take `CCN(CC)C(=O)N1CCN(c2ccc(Cl)cc2)CC1` [drawing 30]: the “N: number of living mice, 0 weeks” value is reported as 6.

With `CCN(CC)C(=O)N1CCN(c2ccc(OC)cc2)CC1` [drawing 31], the “N: number of living mice, 0 weeks” value was found to be 6.

`CCN(CC)C(=O)N1CCN(c2ccc(C(=O)O)cc2)CC1` [drawing 33]: the “N: number of living mice, 0 weeks” value is listed as 6.

For the compound `CCOC(=O)c1ccc(N2CCN(C(=O)N(CC)CC)CC2)cc1` [drawing 32], the “N: number of living mice, 0 weeks” value stood at 6.

For the compound `CCN(CC)C(=O)N1CCN(c2ccccc2)CC1` [drawing 29], the “N: number of living mice, 0 weeks” value was 6.

Staying with this assay, now noted: 100 mg/kg oral; of 6 mice; 2 weeks; control 6.
On to `CCN(CC)C(=O)N1CCN(c2ccc(C(C)=O)cc2)CC1` [drawing 34], for which the “N: number of living mice, 2 weeks” value was found to be 6.

With `CCN(CC)C(=O)N1CCN(c2ccc(Cl)cc2)CC1` [drawing 30], the “N: number of living mice, 2 weeks” value is 6.

On to `CCN(CC)C(=O)N1CCN(c2ccc(OC)cc2)CC1` [drawing 31], for which the “N: number of living mice, 2 weeks” value is recorded as 6.

Take `CCN(CC)C(=O)N1CCN(c2ccc(C(=O)O)cc2)CC1` [drawing 33]: the “N: number of living mice, 2 weeks” value was determined as 6.

Turning to `CCOC(=O)c1ccc(N2CCN(C(=O)N(CC)CC)CC2)cc1` [drawing 32], the “N: number of living mice, 2 weeks” value came to 6.

Take `CCN(CC)C(=O)N1CCN(c2ccccc2)CC1` [drawing 29]: the “N: number of living mice, 2 weeks” value was found to be 6.

Staying with this assay, now noted: 100 mg/kg oral; of 6 mice; 4 weeks; control 6.
`CCN(CC)C(=O)N1CCN(c2ccc(C(C)=O)cc2)CC1` [drawing 34]: the “N: number of living mice, 4 weeks” value stood at 6.

For the compound `CCN(CC)C(=O)N1CCN(c2ccc(Cl)cc2)CC1` [drawing 30], the “N: number of living mice, 4 weeks” value is recorded as 6.

With `CCN(CC)C(=O)N1CCN(c2ccc(OC)cc2)CC1` [drawing 31], the “N: number of living mice, 4 weeks” value came to 6.

Turning to `CCN(CC)C(=O)N1CCN(c2ccc(C(=O)O)cc2)CC1` [drawing 33], the “N: number of living mice, 4 weeks” value is 6.

For the compound `CCOC(=O)c1ccc(N2CCN(C(=O)N(CC)CC)CC2)cc1` [drawing 32], the “N: number of living mice, 4 weeks” value is on record as 6.

Turning to `CCN(CC)C(=O)N1CCN(c2ccccc2)CC1` [drawing 29], the “N: number of living mice, 4 weeks” value was found to be 6.

Still in this assay, the particulars now being: 100 mg/kg oral; of 6 mice; 6 weeks; control 6.
Take `CCN(CC)C(=O)N1CCN(c2ccc(C(C)=O)cc2)CC1` [drawing 34]: the “N: number of living mice, 6 weeks” value is given as 6.

For the compound `CCN(CC)C(=O)N1CCN(c2ccc(Cl)cc2)CC1` [drawing 30], the “N: number of living mice, 6 weeks” value was 6.

With `CCN(CC)C(=O)N1CCN(c2ccc(OC)cc2)CC1` [drawing 31], the “N: number of living mice, 6 weeks” value stood at 6.

Regarding `CCN(CC)C(=O)N1CCN(c2ccc(C(=O)O)cc2)CC1` [drawing 33], the “N: number of living mice, 6 weeks” value was determined as 6.

With `CCOC(=O)c1ccc(N2CCN(C(=O)N(CC)CC)CC2)cc1` [drawing 32], the “N: number of living mice, 6 weeks” value was determined as 6.

In the case of `CCN(CC)C(=O)N1CCN(c2ccccc2)CC1` [drawing 29], the “N: number of living mice, 6 weeks” value is 6.

The assay is the same for the next values; noted with them: 100 mg/kg oral; of 6 mice; 8 weeks; control 5.
For the compound `CCN(CC)C(=O)N1CCN(c2ccc(C(C)=O)cc2)CC1` [drawing 34], the “N: number of living mice, 8 weeks” value was 6.

Take `CCN(CC)C(=O)N1CCN(c2ccc(Cl)cc2)CC1` [drawing 30]: the “N: number of living mice, 8 weeks” value was determined as 6.

For `CCN(CC)C(=O)N1CCN(c2ccc(OC)cc2)CC1` [drawing 31], the “N: number of living mice, 8 weeks” value is given as 6.

With `CCN(CC)C(=O)N1CCN(c2ccc(C(=O)O)cc2)CC1` [drawing 33], the “N: number of living mice, 8 weeks” value came to 6.

Regarding `CCOC(=O)c1ccc(N2CCN(C(=O)N(CC)CC)CC2)cc1` [drawing 32], the “N: number of living mice, 8 weeks” value is 6.

For `CCN(CC)C(=O)N1CCN(c2ccccc2)CC1` [drawing 29], the “N: number of living mice, 8 weeks” value turned out to be 6.

Staying with this assay, now noted: 100 mg/kg oral; of 6 mice; 10 weeks; control 1.
As to `CCN(CC)C(=O)N1CCN(c2ccc(C(C)=O)cc2)CC1` [drawing 34], the “N: number of living mice, 10 weeks” value came out at 6.

As for `CCN(CC)C(=O)N1CCN(c2ccc(Cl)cc2)CC1` [drawing 30], the “N: number of living mice, 10 weeks” value was determined as 6.

As to `CCN(CC)C(=O)N1CCN(c2ccc(OC)cc2)CC1` [drawing 31], the “N: number of living mice, 10 weeks” value amounted to 6.

With `CCN(CC)C(=O)N1CCN(c2ccc(C(=O)O)cc2)CC1` [drawing 33], the “N: number of living mice, 10 weeks” value is reported as 6.

As for `CCOC(=O)c1ccc(N2CCN(C(=O)N(CC)CC)CC2)cc1` [drawing 32], the “N: number of living mice, 10 weeks” value is reported as 6.

On to `CCN(CC)C(=O)N1CCN(c2ccccc2)CC1` [drawing 29], for which the “N: number of living mice, 10 weeks” value was found to be 6.

In the next assay the test system is adjuvant arthritis. As to the kind of experiment: Test 2: Adjuvant Arthritis Test. It is filed as in vivo, SD male rats. The settings on record: 5 mg/kg subcutaneous, 9 times; left hind leg; 15 days; control 84.4 ± 9.0; * P<0.05, ** P<0.01.
On to `CCN(CC)C(=O)N1CCN(c2ccccc2)CC1` [drawing 17], for which the “Swelling Ratio (average value ± standard variation), 15 days” value is recorded as 47.0 ± 8.0%.

The same assay, now with this note: 5 mg/kg subcutaneous, 9 times; left hind leg; 18 days; control 103.2 ± 9.7; * P<0.05, ** P<0.01.
On to `CCN(CC)C(=O)N1CCN(c2ccccc2)CC1` [drawing 17], for which the “Swelling Ratio (average value ± standard variation), 18 days” value is 52.4 ± 9.2%.

Still in this assay, the particulars now being: 5 mg/kg subcutaneous, 9 times; left hind leg; 21 days; control 107.5 ± 13.3; * P<0.05, ** P<0.01.
In the case of `CCN(CC)C(=O)N1CCN(c2ccccc2)CC1` [drawing 17], the “Swelling Ratio (average value ± standard variation), 21 days” value was 59.8 ± 12.1%.
